Measured values reported in PubChem BioAssay (NCI).
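48-hour exposure; five concentrations; linearly interpolated endpoints. TGI is the concentration that stops growth completely.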

Tests used:
Assay in all cases: NCI-60 cell line screen, 48 h
786-0 renal = system: 786-0 renal
A498 renal = system: A498 renal
A549 NSCLC = system: A549 NSCLC
ACHN renal = system: ACHN renal
CAKI-1 renal = system: CAKI-1 renal
CCRF-CEM leukemia = system: CCRF-CEM leukemia
COLO 205 colon = system: COLO 205 colon
DLD-1 colon = system: DLD-1 colon
DMS 114 small cell lung = system: DMS 114 small cell lung
DMS 273 small cell lung = system: DMS 273 small cell lung
EKVX NSCLC = system: EKVX NSCLC
HCC-2998 colon = system: HCC-2998 colon
HCT-116 colon = system: HCT-116 colon
HCT-15 colon = system: HCT-15 colon
HL-60(TB) leukemia = system: HL-60(TB) leukemia
HOP-18 NSCLC = system: HOP-18 NSCLC
HOP-62 NSCLC = system: HOP-62 NSCLC
HT29 colon = system: HT29 colon
IGROV1 ovarian = system: IGROV1 ovarian
K-562 leukemia = system: K-562 leukemia
KM12 colon = system: KM12 colon
KM20L2 colon = system: KM20L2 colon
LOX IMVI melanoma = system: LOX IMVI melanoma
LXFL 529 NSCLC = system: LXFL 529 NSCLC
M14 melanoma = system: M14 melanoma
MALME-3M melanoma = system: MALME-3M melanoma
MOLT-4 leukemia = system: MOLT-4 leukemia
NCI-H226 lung = system: NCI-H226 lung
NCI-H23 lung = system: NCI-H23 lung
NCI-H460 lung = system: NCI-H460 lung
NCI-H522 lung = system: NCI-H522 lung
OVCAR-3 ovarian = system: OVCAR-3 ovarian
OVCAR-4 ovarian = system: OVCAR-4 ovarian
OVCAR-5 ovarian = system: OVCAR-5 ovarian
OVCAR-8 ovarian = system: OVCAR-8 ovarian
RPMI-8226 leukemia = system: RPMI-8226 leukemia
RXF 393 renal = system: RXF 393 renal
SF-268 CNS = system: SF-268 CNS
SF-295 CNS = system: SF-295 CNS
SF-539 CNS = system: SF-539 CNS
SK-MEL-2 melanoma = system: SK-MEL-2 melanoma
SK-MEL-28 melanoma = system: SK-MEL-28 melanoma
SK-MEL-5 melanoma = system: SK-MEL-5 melanoma
SK-OV-3 ovarian = system: SK-OV-3 ovarian
SN12C renal = system: SN12C renal
SNB-19 CNS = system: SNB-19 CNS
SNB-75 CNS = system: SNB-75 CNS
SNB-78 CNS = system: SNB-78 CNS
SW-620 colon = system: SW-620 colon
U251 CNS = system: U251 CNS
UACC-257 melanoma = system: UACC-257 melanoma
UACC-62 melanoma = system: UACC-62 melanoma
UO-31 renal = system: UO-31 renal
M19-MEL melanoma = system: M19-MEL melanoma
TK-10 renal = system: TK-10 renal
XF 498 CNS = system: XF 498 CNS
BT-549 breast = system: BT-549 breast
DU-145 prostate = system: DU-145 prostate
HOP-92 NSCLC = system: HOP-92 NSCLC
HS 578T breast = system: HS 578T breast
MCF7 breast = system: MCF7 breast
MDA-MB-231 breast = system: MDA-MB-231 breast
MDA-MB-435 = system: MDA-MB-435
MDA-N = system: MDA-N
NCI/ADR-RES ovarian = system: NCI/ADR-RES ovarian
PC-3 prostate = system: PC-3 prostate
SR leukemia = system: SR leukemia
T-47D breast = system: T-47D breast

Measured: TGI

C\C=C/C=C/C=C/C(=O)O
not listed: M19-MEL melanoma | TK-10 renal | XF 498 CNS | BT-549 breast | DU-145 prostate | HOP-92 NSCLC | HS 578T breast | MCF7 breast | MDA-MB-231 breast | MDA-MB-435 | MDA-N | NCI/ADR-RES ovarian | PC-3 prostate | SR leukemia | T-47D breast
> 100 µM: all other assays above

CC1Cc2c(N)nc(NN)nc2NC1=O (stereo not drawn)
not listed: A498 renal | CAKI-1 renal | HCC-2998 colon | LXFL 529 NSCLC | OVCAR-4 ovarian | OVCAR-5 ovarian | SF-268 CNS | SK-MEL-2 melanoma | SNB-78 CNS | BT-549 breast | DU-145 prostate | HOP-92 NSCLC | HS 578T breast | MCF7 breast | MDA-MB-231 breast | MDA-MB-435 | MDA-N | NCI/ADR-RES ovarian | PC-3 prostate | SR leukemia | T-47D breast
> 100 µM: all other assays above

Cc1ccc(S(=O)(=O)Nc2nc3ccccc3c(=O)n2C2CCCCC2)cc1
not listed: DLD-1 colon | DMS 114 small cell lung | DMS 273 small cell lung | HOP-18 NSCLC | KM20L2 colon | LXFL 529 NSCLC | MALME-3M melanoma | SNB-78 CNS | M19-MEL melanoma | XF 498 CNS
> 100 µM: all other assays above
